Data from publication PMC9959982 (International Journal of Molecular Sciences, 2023).
Where two headings read alike, the source gives them in different places.

Tests used:
[1] = tested on: EV-A71 BrCr strain; settings: Figure 1; read-out: EV71 EC50; cited from earlier work
[2] = tested on: HIV-1 (NL4.3); settings: printed in Figure 1, prototypes of previous work; cited from earlier work
[3] = tested on: HIV-1 (NL4.3); assay: microbe, parasite or virus in culture; assay type: cell-based; settings: for EC50: virus-induced cytopathic effect reduced by 50%
[4] = tested on: HIV-2 (ROD); assay: Inhibition of HIV-induced cytopathic effect in MT-4 cells, HIV-2; assay type: cell-based
[5] = tested on: EV-A71 BrCr strain; assay: Virus-induced cell death assay, EV-A71 BrCr lab strain in RD cells; assay type: cell-based, Enterovirus A71; settings: for EC50: EV-A71 BrCr (wild type)
[6] = Adverse effect on uninfected RD cells (MTS/PMS); settings: human, uninfected rhabdosarcoma (RD) cells
[7] = Cytotoxicity in MT-4 cells (MTS/PES); assay type: cell-based; settings: human, 50% reduction in cell viability
[8] = tested on: rhabdosarcoma (RD) cells; assay: Adverse effect on uninfected RD cells (MTS/PMS); settings: RD cells
[9] = tested on: MT-4 cells; assay: Cytotoxicity in MT-4 cells (MTS/PES); assay type: cell-based; settings: 50% reduction in cell viability, 5 days
[10] = in vitro; settings: human
[11] = tested on: EV-A71 VP1_S184T_P246S; assay type: cell-based, Enterovirus A71; settings: VP1_S184T_P246S double mutant
[12] = tested on: EV-A71 VP1_P246S; assay type: cell-based, Enterovirus A71; settings: VP1_P246S mutant
[13] = tested on: EV-A71 VP1_S184T; assay type: cell-based, Enterovirus A71; settings: VP1_S184T mutant
[14] = Human immunodeficiency virus 1, MT4, MT-4 cells
[15] = Enterovirus A, EVA71, RD, RD cells
[16] = Human immunodeficiency virus 2, MT4, virus-induced cytopathic effect reduced by 50%

For O=C(CCC(CCC(=O)NC(Cc1c(-c2cc(C(=O)O)cc(C(=O)O)c2)[nH]c2ccccc12)C(=O)O)(CCC(=O)NC(Cc1c(-c2cc(C(=O)O)cc(C(=O)O)c2)[nH]c2ccccc12)C(=O)O)[N+](=O)[O-])NC(Cc1c(-c2cc(C(=O)O)cc(C(=O)O)c2)[nH]c2ccccc12)C(=O)O (stereo not shown) [AL-470], the EC50 [1] is given as 0.35 ± 0.03 µM and the EC50 [2] is given as 0.27 ± 0.12 µM.
With dextran sulfate-5000 [DS-5000] the EC50 ([3]; MT-4 cells) was 0.07 ± 0.02 µM and the EC50 ([4]; virus-induced cytopathic effect reduced by 50%) was 0.03 ± 0.01 µM.
With O=C(CCOCC(COCCC(=O)Nc1cc(C(=O)O)cc(C(=O)O)c1)(COCCC(=O)Nc1cc(C(=O)O)cc(C(=O)O)c1)COCCC(=O)Nc1cc(C(=O)O)cc(C(=O)O)c1)Nc1cc(C(=O)O)cc(C(=O)O)c1 [Compound 35] the EC50 [3, 14] was over 50 µM, the “activity against HIV-1” value ([3]; at concentrations up to 50 µM) was “inactive” and the EC50 ([5]; RD cells) was 8.48 ± 2.34 µM. The “SI selectivity index (CC50/EC50)” value ([5]; EV-A71 BrCr, RD cells) was over 12, the EC50 [5, 15] was 8.5 µM and the CC50 at 3 days [6] was over 100 µM. The CC50 at 5 days [7] was over 50 µM and the EC50 [4, 16] was over 50 µM.
O=C(CCOCC(COCCC(=O)NC(Cc1c(CCCCCNC(=O)Nc2cc(C(=O)O)cc(C(=O)O)c2)[nH]c2ccccc12)C(=O)O)(COCCC(=O)NC(Cc1c(CCCCCNC(=O)Nc2cc(C(=O)O)cc(C(=O)O)c2)[nH]c2ccccc12)C(=O)O)COCCC(=O)NC(Cc1c(CCCCCNC(=O)Nc2cc(C(=O)O)cc(C(=O)O)c2)[nH]c2ccccc12)C(=O)O)NC(Cc1c(CCCCCNC(=O)Nc2cc(C(=O)O)cc(C(=O)O)c2)[nH]c2ccccc12)C(=O)O (stereo not shown) [Compound 24] showed a CC50 [8] of over 100 µM and a CC50 [9] of 30.9 ± 0.98 µM.
Work on O=C(O)CCCCCCc1[nH]c2ccccc2c1C[C@H](NC(=O)CCOCC(COCCC(=O)N[C@@H](Cc1c(CCCCCCC(=O)O)[nH]c2ccccc12)C(=O)O)(COCCC(=O)N[C@H](Cc1c(CCCCCCC(=O)O)[nH]c2ccccc12)C(=O)O)COCCC(=O)N[C@H](Cc1c(CCCCCCC(=O)O)[nH]c2ccccc12)C(=O)O)C(=O)O [Compound 33] yielded a CC50 [8] of over 100 µM and a CC50 [9] of over 50 µM.
In the case of CN[C@@H]1[C@H](O[C@@H]2OC[C@@H](O)[C@H](O)[C@H]2O)[C@@H](O)[C@H](O[C@H]2c3cc(C)c(C(=O)N[C@H](C)C(=O)O)c(O)c3-c3c(cc4c(c3O)C(=O)c3cc(OC)cc(O)c3C4=O)[C@@H]2O)O[C@@H]1C [PRM-A, pradimicin A], the EC50 [3, 14] is reported as 3.3 ± 1.2 µM, the “SI selectivity index (CC50/EC50)” value ([3]; MT-4 cells, Table 1) is reported as over 30.3 and the CC50 at 5 days [7] is reported as over 100 µM. For the same molecule, the EC50 [4, 16] was 5.9 ± 3.7 µM.
With CCOC(=O)c1ccc(OCCC2CCN(c3ccc(C)nn3)CC2)cc1 [Pirodavir, pirodavir, reference compound] the CC50 at 3 days [10] was over 100 µM, the “SI selectivity index (CC50/EC50)” value [5] was over 333 and the EC50 [5, 15] was 0.3 ± 0.001 µM.
For O=C(CCOCC(COCCC(=O)NC(Cc1c(CCCNC(=O)Nc2cc(C(=O)O)cc(C(=O)O)c2)[nH]c2ccccc12)C(=O)O)(COCCC(=O)NC(Cc1c(CCCNC(=O)Nc2cc(C(=O)O)cc(C(=O)O)c2)[nH]c2ccccc12)C(=O)O)COCCC(=O)NC(Cc1c(CCCNC(=O)Nc2cc(C(=O)O)cc(C(=O)O)c2)[nH]c2ccccc12)C(=O)O)NC(Cc1c(CCCNC(=O)Nc2cc(C(=O)O)cc(C(=O)O)c2)[nH]c2ccccc12)C(=O)O (stereo not shown) [Compound 23], the EC50 [11] was 0.58 ± 0.2 µM, the CC50 [8] was over 50 µM and the CC50 [9] was over 50 µM. The EC50 [12] was 0.22 ± 0.01 µM and the EC50 [13] was 0.41 ± 0.03 µM.
O=C(CCOCC(COCCC(=O)NC(Cc1c(CCCCCCCCNC(=O)Nc2cc(C(=O)O)cc(C(=O)O)c2)[nH]c2ccccc12)C(=O)O)(COCCC(=O)NC(Cc1c(CCCCCCCCNC(=O)Nc2cc(C(=O)O)cc(C(=O)O)c2)[nH]c2ccccc12)C(=O)O)COCCC(=O)NC(Cc1c(CCCCCCCCNC(=O)Nc2cc(C(=O)O)cc(C(=O)O)c2)[nH]c2ccccc12)C(=O)O)NC(Cc1c(CCCCCCCCNC(=O)Nc2cc(C(=O)O)cc(C(=O)O)c2)[nH]c2ccccc12)C(=O)O (stereo not shown) [Compound 25] gave a CC50 [8] of over 100 µM and a CC50 [9] of over 50 µM.
Molecule O=C(CCOCC(COCCC(=O)NCCNC(=O)Nc1cc(C(=O)O)cc(C(=O)O)c1)(COCCC(=O)NCCNC(=O)Nc1cc(C(=O)O)cc(C(=O)O)c1)COCCC(=O)NCCNC(=O)Nc1cc(C(=O)O)cc(C(=O)O)c1)NCCNC(=O)Nc1cc(C(=O)O)cc(C(=O)O)c1 [Compound 40] has a CC50 [8] of over 100 µM and a CC50 [9] of over 50 µM.
O=C(O)CCCc1[nH]c2ccccc2c1C[C@H](NC(=O)CCOCC(COCCC(=O)N[C@@H](Cc1c(CCCC(=O)O)[nH]c2ccccc12)C(=O)O)(COCCC(=O)N[C@H](Cc1c(CCCC(=O)O)[nH]c2ccccc12)C(=O)O)COCCC(=O)N[C@H](Cc1c(CCCC(=O)O)[nH]c2ccccc12)C(=O)O)C(=O)O [Compound 32] gave a CC50 [8] of over 100 µM and a CC50 [9] of over 50 µM.
